Test results as given in patent publication US20240262819A1, “NOVEL COMPOUNDS HAVING INHIBITORY ACTIVITY AGAINST GLUCOSYLCERAMIDE SYNTHASE OR PHARMACEUTICALLY ACCEPTABLE SALT THEREOF, PROCESSES FOR PREPARING THE SAME, AND PHARMACEUTICAL COMPOSITIONS COMPRISING THE SAME” (YUHAN CORPORATION, priority 2021, published 2024).
Where “and” joins values, the source holds several entries; their conditions need not be identical. Equal entries are not always repeated. Where two headings read alike, the source gives them in different places.

Key:
[1] = Evaluation of blood-brain barrier (BBB) permeability through oral administration; format: in vivo, mice; details: mouse, in vivo
Description: The blood-brain barrier (BBB) permeability was evaluated in mice, with respect to the compounds according to the present invention and the control (ibiglustat). Each compound of the present invention and the control were suspended in 0.5% methyl cellulose containing 0.2% Tween 80 and then orally administered to mice at a dose of 10 or 30 mg/10 ml/kg. After the whole blood was collected from the heart of each mouse at the time of 4 hours after the administration, it was placed in a lithium heparin tube and immediately centrifuged to obtain the plasma. After the exsanguination was carried out through abdominal vena cava incision, the forebrain was taken by dissection of the head. Both of the forebrain and the plasma were stored in a −80° C. freezer until the analysis of drug concentrations therein. For the analysis of drug concentrations therein, the forebrain was immersed in distilled water and then homogenized with a homogenizer to obtain a homogenate. Each plasma and homogenate was treated with acetonitrile to precipitate proteins, vortexed for 15 seconds, and then centrifuged (12700 rpm, 10 min, 4° C.). The obtained supernatant was diluted with an 80% aqueous solution of acetonitrile containing 0.1% formic acid and then analyzed with an LC-MS/MS instrument. LC-MS/MS analysis was carried out with a reversed-phase column, using distilled water containing 0.1% formic acid and acetonitrile as mobile phases. Each eluted material was detected through a mass spectrometer to calculate the drug concentrations thereof. The brain-plasma drug ratio (B/P ratio) was calculated from the drug concentrations in each tissue to evaluate the blood-brain barrier (BBB) permeability.

[2] = tested on: GM1 production in Jurkat cells; experiment: cells; format: cell-based; details: Homo sapiens, Jurkat, 72 h
[3] = mice, oral, dose 30 mg/kg, 4 hr, read-out: Mean brain-plasma drug ratio at 4 hr
[4] = mice, oral, dose 30 mg/kg, 4 hr, read-out: Mean drug concentrations in brain tissue at 4 hr
[5] = mice, oral, dose 30 mg/kg, 4 hr, read-out: Mean drug concentrations in plasma at 4 hr

| SMILES | Kp at 4 h ([1]; po, 30 mg/kg) | concentration at 4 h ([1]; po, 30 mg/kg) | IC50 [2] [nM] | Kp at 4 h [1, 3] | concentration at 4 h [1, 4] [ng/g] | concentration at 4 h [1, 5] [ng/mL] | Kp at 4 h ([1]; mice, oral, dose 10 mg/kg, 4 hr, read-out: Mean brain-plasma drug ratio at 4 hr) | concentration at 4 h ([1]; mice, oral, dose 10 mg/kg, 4 hr, read-out: Mean drug concentrations in brain tissue at 4 hr) [ng/g] | concentration at 4 h ([1]; mice, oral, dose 10 mg/kg, 4 hr, read-out: Mean drug concentrations in plasma at 4 hr) [ng/mL] |
| --- | --- | --- | --- | --- | --- | --- | --- | --- | --- |
| CC(C)(NC(=O)O[C@@H]1CN2CCC1CC2)c1csc(-c2ccc(F)cc2)n1 [Control, Ibiglustat, reference compound] | 0.501 | 2640 ng/mL and 1320 ng/g |  |  |  |  |  |  |  |
| CCCOc1c(C)cc(-c2ccc3c(c2)CC(C)(C)[C@H]3NC(=O)O[C@@H]2CN3CCC2CC3)cc1C [Example 9, (S)-quinuclidin-3-yl((R)-5-(3,5-dimethyl-4-propoxyphenyl)-2,2-dimethyl-2,3-dihydro-1H-inden-1-yl)carbamate] |  |  | 22.1 | 6.84 | 2750 | 403 |  |  |  |
| Cc1cc(-c2ccc3c(c2)CC(C)(C)[C@H]3NC(=O)O[C@@H]2CN3CCC2CC3)cc(C)c1OC(C)C [Example 10, (S)-quinuclidin-3-yl((R)-5-(4-isopropoxy-3,5-dimethylphenyl)-2,2-dimethyl-2,3-dihydro-1H-inden-1-yl)carbamate] |  |  | 10.3 | 5.62 | 6100 | 1090 |  |  |  |
| CC(C)Oc1ccc(-c2ccc3c(c2)CC(C)(C)[C@H]3NC(=O)O[C@@H]2CN3CCC2CC3)cc1Cl [Example 11, (S)-quinuclidin-3-yl((R)-5-(3-chloro-4-isopropoxyphenyl)-2,2-dimethyl-2,3-dihydro-1H-inden-1-yl)carbamate] |  |  | 23.4 |  |  |  | 9.12 | 2410 | 265 |
| COc1ccc(-c2ccc3c(c2)CC(C)(C)[C@H]3NC(=O)O[C@@H]2CN3CCC2CC3)cc1Cl [Example 14, (S)-quinuclidin-3-yl((R)-5-(3-chloro-4-methoxyphenyl)-2,2-dimethyl-2,3-dihydro-1H-inden-1-yl)carbamate] |  |  | 48.9 | 3.92 | 3070 | 781 |  |  |  |
| CCOc1ccc(-c2ccc3c(c2)CC(C)(C)[C@H]3NC(=O)O[C@@H]2CN3CCC2CC3)cc1Cl [Example 15, (S)-quinuclidin-3-yl((R)-5-(3-chloro-4-ethoxyphenyl)-2,2-dimethyl-2,3-dihydro-1H-inden-1-yl)carbamate] |  |  | 40.5 | 4.66 | 6030 | 1290 |  |  |  |
| CCCOc1ccc(-c2ccc3c(c2)CC(C)(C)[C@H]3NC(=O)O[C@@H]2CN3CCC2CC3)cc1Cl [Example 16, (S)-quinuclidin-3-yl((R)-5-(3-chloro-4-propoxyphenyl)-2,2-dimethyl-2,3-dihydro-1H-inden-1-yl)carbamate] |  |  | 28.7 | 8.02 | 1280 | 160 |  |  |  |
| CCCOc1ccc(-c2ccc3c(c2)CC(C)(C)[C@H]3NC(=O)O[C@@H]2CN3CCC2CC3)cc1F [Example 20, (S)-quinuclidin-3-yl((R)-5-(3-fluoro-4-propoxyphenyl)-2,2-dimethyl-2,3-dihydro-1H-inden-1-yl)carbamate] |  |  | 18.4 | 7.12 | 4070 | 578 |  |  |  |
| CC(C)Oc1ccc(-c2ccc3c(c2)CC(C)(C)[C@H]3NC(=O)O[C@@H]2CN3CCC2CC3)cc1F [Example 21, (S)-quinuclidin-3-yl((R)-5-(3-fluoro-4-isopropoxyphenyl)-2,2-dimethyl-2,3-dihydro-1H-inden-1-yl)carbamate] |  |  | 20.9 | 6.48 | 9510 | 1480 |  |  |  |
| CCOc1c(C)cc(-c2ccc3c(c2)CC(C)(C)[C@H]3NC(=O)O[C@@H]2CN3CCC2CC3)cc1C [Example 22, (S)-quinuclidin-3-yl((R)-5-(4-ethoxy-3,5-dimethylphenyl)-2,2-dimethyl-2,3-dihydro-1H-inden-1-yl)carbamate] |  |  | 38.1 | 3.37 | 4400 | 1320 |  |  |  |
| COc1ccc(-c2ccc3c(c2)CC(C)(C)[C@H]3NC(=O)O[C@@H]2CN3CCC2CC3)c(Cl)c1 [Example 43, (S)-quinuclidin-3-yl((R)-5-(2-chloro-4-methoxyphenyl)-2,2-dimethyl-2,3-dihydro-1H-inden-1-yl)carbamate] |  |  | 6.4 | 3.65 | 5720 | 1560 |  |  |  |
| Cc1ccc(-c2ccc3c(c2)CC(C)(C)[C@H]3NC(=O)O[C@@H]2CN3CCC2CC3)cc1Cl [Example 45, (S)-quinuclidin-3-yl((R)-5-(3-chloro-4-methylphenyl)-2,2-dimethyl-2,3-dihydro-1H-inden-1-yl)carbamate] |  |  | 6 | 9.09 | 7820 | 858 |  |  |  |
| CC(C)COc1ccc(-c2cc3c(cc2F)[C@H](NC(=O)O[C@@H]2CN4CCC2CC4)C(C)(C)C3)cc1 [Example 57, (S)-quinuclidin-3-yl((R)-6-fluoro-5-(4-isobutoxyphenyl)-2,2-dimethyl-2,3-dihydro-1H-inden-1-yl)carbamate] |  |  | 0.99 | 20.9 | 1330 | 63.7 |  |  |  |
| CC(C)c1ccc(-c2cc3c(cc2F)[C@H](NC(=O)O[C@@H]2CN4CCC2CC4)C(C)(C)C3)cc1 [Example 59, (S)-quinuclidin-3-yl((R)-6-fluoro-5-(4-isopropylphenyl)-2,2-dimethyl-2,3-dihydro-1H-inden-1-yl)carbamate] |  |  | 4.3 | 9.7 | 4120 | 436 |  |  |  |
| CCCc1ccc(-c2cc3c(cc2F)[C@H](NC(=O)O[C@@H]2CN4CCC2CC4)C(C)(C)C3)cc1 [Example 61, (S)-quinuclidin-3-yl((R)-6-fluoro-2,2-dimethyl-5-(4-propylphenyl)-2,3-dihydro-1H-inden-1-yl)carbamate] |  |  | 10.6 | 11.1 | 4880 | 439 |  |  |  |
| CC(C)Cc1ccc(-c2cc3c(cc2F)[C@H](NC(=O)O[C@@H]2CN4CCC2CC4)C(C)(C)C3)cc1 [Example 62, (S)-quinuclidin-3-yl((R)-6-fluoro-5-(4-isobutylphenyl)-2,2-dimethyl-2,3-dihydro-1H-inden-1-yl)carbamate] |  |  | 3.4 | 6.83 | 2960 | 434 |  |  |  |
| COc1c(C)cc(-c2cc3c(cc2F)[C@H](NC(=O)O[C@@H]2CN4CCC2CC4)C(C)(C)C3)cc1C [Example 63, (S)-quinuclidin-3-yl((R)-6-fluoro-5-(4-methoxy-3,5-dimethylphenyl)-2,2-dimethyl-2,3-dihydro-1H-inden-1-yl)carbamate] |  |  | 20.6 | 1.4 | 1360 | 974 |  |  |  |
| Cc1cc(-c2cc3c(cc2F)[C@H](NC(=O)O[C@@H]2CN4CCC2CC4)C(C)(C)C3)cc(C)c1OC(C)C [Example 65, (S)-quinuclidin-3-yl((R)-6-fluoro-5-(4-isopropoxy-3,5-dimethylphenyl)-2,2-dimethyl-2,3-dihydro-1H-inden-1-yl)carbamate] |  |  | 8.8 | 5.04 | 4080 | 811 |  |  |  |
| CC(C)Oc1ccc(-c2cc3c(cc2F)[C@H](NC(=O)O[C@@H]2CN4CCC2CC4)C(C)(C)C3)cc1Cl [Example 66, (S)-quinuclidin-3-yl((R)-5-(3-chloro-4-isopropoxyphenyl)-6-fluoro-2,2-dimethyl-2,3-dihydro-1H-inden-1-yl)carbamate] |  |  | 5.04 | 7.85 | 5490 | 719 |  |  |  |
| COc1ccc(-c2cc3c(cc2F)[C@H](NC(=O)O[C@@H]2CN4CCC2CC4)C(C)(C)C3)c(F)c1 [Example 67, (S)-quinuclidin-3-yl((R)-6-fluoro-5-(2-fluoro-4-methoxyphenyl)-2,2-dimethyl-2,3-dihydro-1H-inden-1-yl)carbamate] |  |  | 5.3 | 4.11 | 3670 | 903 |  |  |  |
| CC(C)Oc1ccc(-c2cc3c(cc2F)[C@H](NC(=O)O[C@@H]2CN4CCC2CC4)C(C)(C)C3)cc1 [Example 68, (S)-quinuclidin-3-yl((R)-6-fluoro-5-(4-isopropoxyphenyl)-2,2-dimethyl-2,3-dihydro-1H-inden-1-yl)carbamate] |  |  | 1.54 | 9.77 | 13500 | 1420 |  |  |  |
| CC(C)Oc1cccc(-c2cc3c(cc2F)[C@H](NC(=O)O[C@@H]2CN4CCC2CC4)C(C)(C)C3)c1 [Example 81, (S)-quinuclidin-3-yl((R)-6-fluoro-5-(3-isopropoxyphenyl)-2,2-dimethyl-2,3-dihydro-1H-inden-1-yl)carbamate] |  |  | 18.7 |  |  |  |  |  |  |
